Measured values taken from publication PMC6888270 (International Journal of Molecular Sciences, 2019).
Square brackets hold non-standard residues; d marks the D form. Peptide text beside a SMILES is read from it. Phe(4-Cl) = N[C@@H](Cc1ccc(Cl)cc1)C(=O)O; d2Nal = N[C@H](Cc1ccc2ccccc2c1)C(=O)O; d(hCit) = NC(=O)NCCCC[C@@H](N)C(=O)O; Lys(iPr) = CC(C)NCCCC[C@H](N)C(=O)O; d3Pal = N[C@H](Cc1cccnc1)C(=O)O

Legend:
[1] = biological target: Hemagglutinin-tagged GnRHR (GnRHR-HA) (UniProt P30968)
GnRH receptor (GnRHR) [2] = biological target: T1, GnRH receptor (GnRHR) (Homo sapiens, UniProt P30968); experiment: BRET measurement of GnRH-induced intracellular Ca2+ increase in SH-SY5Y/GnRHR cells; assay type: cell-based; parameters: HA (hemagglutinin); expressed in transfected cells; conditions: means±SEM, n=6
T1 sequence (P30968 1-328): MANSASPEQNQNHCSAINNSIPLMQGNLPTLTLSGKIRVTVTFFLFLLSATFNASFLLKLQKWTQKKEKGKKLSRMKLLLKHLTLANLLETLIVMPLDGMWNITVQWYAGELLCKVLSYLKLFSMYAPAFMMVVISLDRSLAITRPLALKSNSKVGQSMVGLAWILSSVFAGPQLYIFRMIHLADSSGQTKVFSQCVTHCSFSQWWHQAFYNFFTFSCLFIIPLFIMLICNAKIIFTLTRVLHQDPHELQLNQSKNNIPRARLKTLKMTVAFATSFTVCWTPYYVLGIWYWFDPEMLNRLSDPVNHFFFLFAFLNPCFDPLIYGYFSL
Method: (§1) Different transfection protocols were followed, depending on the endpoint to be measured. For BRET experiments, 3 × 10^4 cells were transiently transfected using vectors expressing the cAMP-CAMYEL or the aequorin-Ca^2+ BRET biosensor-encoding cDNA [59], as appropriate, together with the GnRHR-HA-encoding vector. Transfections were performed in a 96-well plate using the Metafectene PRO reagent (Biontex, München, Germany), as previously described. 100 ng of the receptor-encoding vector + 100 ng of the BRET biosensor-encoding vector were used for co-transfecting HEK293 cells, while SH-SY5Y cells were co-transfected using 200 ng of the receptor-encoding vector + 100 ng of the BRET biosensor-encoding vector. 200 ng of the aequorin-Ca^2+ BRET biosensor-encoding cDNA were used for transfecting LβT2 cells. Each sample was prepared in duplicate, cultured for 48 h and serum-starved over-night before experiments.
(§2) To evaluate Ca^2+ increase, cells were incubated in Hank’s Balanced Salt Solution (HBSS) with Ca^2+ and Mg^2+, 1 mM Hepes and 5 µM Coelenterazine H (NanoLight Technologies, a division of Prolume, Ltd., Pinetop, AZ, USA), for 45 minutes, together with Cetrorelix, Ganirelix, Teverelix or vehicle, as appropriate. […] The EC50 was extrapolated from the curve obtained from each cell line. Cells treated by 5 µM of the sarco/endoplasmic reticulum Ca^2+ ATPase enzyme inhibitor, thapsigargin (Tocris Bioscience), served as positive control. Treatment by the vehicle (HBSS) was the negative control and used as a normalizer.
(§3) BRET experiments were performed using a CLARIOstar plate reader equipped by a monocromator (BMG Labtech, Ortenberg, Germany), as previously described.
(§4) Data were plotted on graphs as means ± standard error of means (SEM). The kinetics of intracellular Ca^2+ increase was represented by the BRET biosensor emission after background subtraction (vehicle). […] Data distributions were analyzed by D’Agostino and Pearson normality tests and inhibition of intracellular Ca^2+ increase by different concentrations of antagonist were compared using two-way analysis of variance (ANOVA), followed by Bonferroni post-test or Kruskal-Wallis and proper post-test. cAMP accumulation was represented as acceptor:donor emission ratio (induced BRET changes) after basal subtraction (untreated cells). Dose-response curves were obtained by data interpolation using non-linear regressions and normalized as percentage of the maximal response. EC50s, as well as half-maximal inhibitory concentrations (IC50), were compared by t-test or Mann–Whitney U test, while results obtained by Western blotting and qRT-PCR data were compared by one-way ANOVA followed by Bonferroni post-test. Statistical differences were considered as significant for p < 0.05. These analyses were performed using the GraphPad Prism software (GraphPad Software Inc., San Diego, CA, USA).

β-catenin activation = experiment: Immunofluorescence of active β-catenin in HEK293/GnRHR cells; assay type: cell-based, human; conditions: 1 µM GnRH + 1 µM antagonist, 1 h
Method: In order to evaluate the activation of phospho-proteins and β-catenin by Western blotting and immunofluorescence, 1 × 10^5 HEK293 cells were transiently transfected in a 24-well plate. To this purpose, 500 ng of GnRHR-HA-encoding vector diluted in 2 µL/well Lipofectamine® 2000 Transfection Reagent (Invitrogen) were used, according to the manufacturer’s instructions. Transfected HEK293 cells (HEK293/GnRHR) were cultured for 48 h and maintained over-night in serum-free medium before experiments.
3 × 10^4 HEK293/GnRHR and mock-transfected HEK293 cells (negative control) were plated on gelatine-treated slides. […] As a positive control, cells were treated for 16 h with 100 nM of the selective glycogen synthase kinase 3 (GSK3) inhibitor, CHIR99021 (Sigma-Aldrich), which stabilizes free cytosolic β-catenin [68]. After stimulations, cells were washed in PBS with Ca^2+/Mg^2+ and fixed for 20 min in paraformaldehyde 4%/PBS. Cell monolayers were washed by PBS and permeabilized using 0.1% Triton X-100. Samples were incubated in 4% bovine serum albumin (BSA)/PBS, for 1 h at room temperature (RT), before incubation with a mouse primary antibody targeting β-catenin (#05-665, 1:300 dilution in 4% BSA/PBS; Merck KGaA) overnight at 4 °C. Following washing, cells were then incubated with Cy3-conjugated anti-mouse IgG secondary antibody (#C2181, 1:200 dilution in 4% BSA/PBS; Sigma-Aldrich) for 1 h at RT. Cell monolayers were then stained for 10 min with 4′,6-diamidino-2-phenylindole (DAPI) (Sigma-Aldrich) and washed in PBS before slide treatment by polyvinyl alcohol mounting medium with 1,4-diazabicyclo[2.2.2]octane (DABCO®) (Sigma-Aldrich). Fluorescent signals were detected using the Eclipse Ni-E microscope (Nikon Instruments BV, Amsterdam, The Netherlands).

GnRH receptor (GnRHR) [3] = biological target: T1, GnRH receptor (GnRHR); experiment: BRET measurement of GnRH-induced intracellular Ca2+ increase in HEK293/GnRHR cells; assay type: cell-based; parameters: HA (hemagglutinin); expressed in transfected cells; host or cells: HEK293 (transient co-transfection with BRET biosensor); conditions: means ± SEM, n = 6
Method: as §1, §2, §3, §4

Lhb gene expression = Lhb gene expression by qRT-PCR in LβT2 cells; assay type: cell-based, mouse; conditions: 1 µM GnRH + 1 µM antagonist, 24 h, n = 4
Method: LβT2 cells were seeded in 24-well plates (2 × 10^5 cells/well) and cultured for 24 h in DMEM supplemented with 10% Charcoal Stripped FBS, 4.5 g/L glucose, 100 IU/mL penicillin, 0.1 mg/mL streptomycin, and 1 mM glutamine (all from Sigma-Aldrich) before treatments. […] Samples were lysed for RNA extraction using TRIzolTM Reagent (Invitrogen) and equal amounts of total RNA were used for cDNA synthesis performed using the iScript reverse transcriptase (BioRad), as previously described. qRT-PCR was carried out in triplicates on the CFX96TM Real-Time PCR Detection System (BioRad) using the following primers pairs: [NT] for mouse Lhb; [NT] for mouse Gapdh. Primer sequences were drawn using the Mus musculus Lhb (NCBI Reference Sequence: NM_008497.2) and Gapdh (NM_008084.3) mRNAs as templates. Gene expression of Lhb was normalized to mouse Gapdh gene expression using the 2^-ΔΔCt method.

[4] = biological target: T2, murine GnRHR (mouse (endogenous in LβT2)) (UniProt Q01776)
T2 sequence: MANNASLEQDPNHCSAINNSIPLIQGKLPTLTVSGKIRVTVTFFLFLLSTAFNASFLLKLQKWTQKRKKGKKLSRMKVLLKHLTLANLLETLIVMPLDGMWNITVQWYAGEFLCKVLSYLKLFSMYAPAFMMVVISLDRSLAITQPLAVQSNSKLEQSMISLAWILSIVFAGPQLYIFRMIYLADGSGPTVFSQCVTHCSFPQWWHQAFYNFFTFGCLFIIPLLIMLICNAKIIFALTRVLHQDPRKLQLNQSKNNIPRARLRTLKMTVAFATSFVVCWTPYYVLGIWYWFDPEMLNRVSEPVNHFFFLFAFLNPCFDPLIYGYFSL

## Cetrorelix acetate (peptide)
[1]
  IC50 of inhibition of 3 × EC50 GnRH-induced cAMP accumulation (CAMYEL BRET), HEK293/GnRHR cells: 0.84 nM
  IC50 of inhibition of 3 × EC50 GnRH-induced cAMP accumulation (CAMYEL BRET), SH-SY5Y/GnRHR cells: 1.56 nM

## Ganirelix acetate (peptide)
[1]
  IC50 of inhibition of 3 × EC50 GnRH-induced cAMP accumulation (CAMYEL BRET), HEK293/GnRHR cells: 0.61 nM
  IC50 of inhibition of 3 × EC50 GnRH-induced cAMP accumulation (CAMYEL BRET), SH-SY5Y/GnRHR cells: 16.6 nM

## Teverelix (peptide)
[1]
  IC50 of inhibition of 3 × EC50 GnRH-induced cAMP accumulation (CAMYEL BRET), HEK293/GnRHR cells: 0.49 nM
  IC50 of inhibition of 3 × EC50 GnRH-induced cAMP accumulation (CAMYEL BRET), SH-SY5Y/GnRHR cells: 62.8 nM

## CC(=O)N[C@H](Cc1ccc2ccccc2c1)C(=O)N[C@@H](Cc1ccc(Cl)cc1)C(=O)N[C@H](Cc1cccnc1)C(=O)N[C@@H](CO)C(=O)N[C@H](Cc1ccc(O)cc1)C(=O)N[C@H](CCCCNC(N)=O)C(=O)N[C@@H](CC(C)C)C(=O)N[C@@H](CCCCNC(C)C)C(=O)N1CCC[C@H]1C(=O)N[C@H](C)C(N)=O [Teverelix] (Ac-[d2Nal][Phe(4-Cl)][d3Pal]S[dY][d(hCit)]L[Lys(iPr)]P[dA]-NH2)
GnRH receptor (GnRHR) [2]; 3xEC50 GnRH + 1 pM antagonist
  AUC of the kinetics of intracellular Ca2+ response: 143555±29053
GnRH receptor (GnRHR) [2]; 3xEC50 GnRH + 10 pM antagonist
  AUC of the kinetics of intracellular Ca2+ response: 128010±27347
GnRH receptor (GnRHR) [2]; 3xEC50 GnRH + 100 pM antagonist
  AUC of the kinetics of intracellular Ca2+ response: 110248±22209
GnRH receptor (GnRHR) [2]; 3xEC50 GnRH + 1 nM antagonist
  AUC of the kinetics of intracellular Ca2+ response: 96368±17786
GnRH receptor (GnRHR) [2]; 3xEC50 GnRH + 10 nM antagonist
  AUC of the kinetics of intracellular Ca2+ response: 81812±12486
GnRH receptor (GnRHR) [2]; 3xEC50 GnRH + 20 nM antagonist
  AUC of the kinetics of intracellular Ca2+ response: 38199±10646
GnRH receptor (GnRHR) [2]; 3xEC50 GnRH + 100 nM antagonist
  AUC of the kinetics of intracellular Ca2+ response: 76018±13231
GnRH receptor (GnRHR) [2]; 3xEC50 GnRH + 1 uM antagonist
  AUC of the kinetics of intracellular Ca2+ response: 5686±3292
β-catenin activation
  effect on GnRH-induced active β-catenin staining: did not result in any decrease of signal
GnRH receptor (GnRHR) [3]; 3 × EC50 GnRH + 1 pM antagonist
  AUC of the kinetics of intracellular Ca2+ response: 85,301 ± 21,321
GnRH receptor (GnRHR) [3]; 3 × EC50 GnRH + 10 pM antagonist
  AUC of the kinetics of intracellular Ca2+ response: 98,939 ± 27,373
GnRH receptor (GnRHR) [3]; 3 × EC50 GnRH + 100 pM antagonist
  AUC of the kinetics of intracellular Ca2+ response: 58,864 ± 27,101
GnRH receptor (GnRHR) [3]; 3 × EC50 GnRH + 1 nM antagonist
  AUC of the kinetics of intracellular Ca2+ response: 81,702 ± 18,920
GnRH receptor (GnRHR) [3]; 3 × EC50 GnRH + 10 nM antagonist
  AUC of the kinetics of intracellular Ca2+ response: 74,321 ± 17,569
GnRH receptor (GnRHR) [3]; 3 × EC50 GnRH + 75 nM antagonist
  AUC of the kinetics of intracellular Ca2+ response: 42,401 ± 8974
GnRH receptor (GnRHR) [3]; 3 × EC50 GnRH + 100 nM antagonist
  AUC of the kinetics of intracellular Ca2+ response: 29,931 ± 8731
GnRH receptor (GnRHR) [3]; 3 × EC50 GnRH + 1 µM antagonist
  AUC of the kinetics of intracellular Ca2+ response: 4107 ± 3804
Lhb gene expression
  effect on GnRH-induced Lhb gene expression: inhibited

## Gonadotropin releasing hormone (GnRH) (from UniProt P01148 24-33) (peptide)
[4]
  EC50 of GnRH-induced intracellular Ca^2+ accumulation (BRET biosensor), LβT2 cells: 1.8 nM
